Reference: US8138196B2, “Antifungal wallboards and building materials and methods for the production thereof” (Syngenta Crop Protection, Inc., priority 2005, dated 2012)
Values joined by “and” are separate entries in the source; they are usually repeats but may differ in a detail not shown here. Equal values may be shown once.

Legend:
Format in all cases: cell-based
[1] = system: Aureobasidium pullulans (ATCC 15233); test: Example 3 liquid culture assay on 24 well plates, solo and 2-way mixtures
Description: (§1) Alternaria tenuissima (DSM 63360), Penicillium chrysogenum (DSM 895), Stachybotrys chartarum (DSM2144), Aspergillus niger (DSM 63263), Aspergillus versicolor (DSM 1943) and Aureobasidium pullulans (ATCC 15233) were separately cultivated on PDA media to […] sporulation. Spore suspensions were produced for each fungi. Spore concentrations of approx. 100.000 spores/ml were used.
(§2) Test method used: liquid culture assay on 24 well plates.
(§3) For solo (i.e. single) ai testing the formulated fungicide (100 ul) was filled into the 24 well plates and 100 ul distilled water was added. Afterwards 800 ul of 0.3% AE media was added to the plate. The spore suspension of the specific fungi was added to this media in advance containing approx. 100,000 spores/ml. The 24 well plates were sealed and incubated at 24° C.
(§4) Dependent on the growth properties of each organisms, the evaluation was done after 3 to 6 days, when the surface of the check well was covered with mycelium. The evaluation was performed by assessing the growth of the fungi related to the check growth. The results are expressed as % activity relative to the check (values of 0-100% growth). Afterwards the results were converted in % O growth inhibition.
(§5) For synergism testing of the 2-way mixtures 100 ul of each fungicide were filled into 24 well plates and 800 ul of 0.3% AE media containing the spore suspension was added. Different ratios of the 2 fungicide rates were tested at the same time.
(§6) For the mixtures of different fungicides the synergism was calculated based on the Colby equation, which is described below: […]
(§7) The fungicidal action to be expected, We, for a given combination of two fungicides can be calculated as follows (see COLBY, S. R. “Calculating synergistic and antagonistic response of herbicide combinations”. Weeds 15, pages 20-22; 1967): We=X+[Y×(100−X)/100] wherein: • X=% activity in the case of treatment with the compound of formula I at rate x, in comparison with untreated control (=0%). • Y=% activity in the case of treatment with a compound of formula II at rate y, in comparison with untreated control. • We=expected activity (% activity in comparison with untreated control) after treatment with the compound of formula I and a compound of formula II at a rate of x+y kg of active ingredient.
(§8) If the activity actually observed is greater than the expected value We (factor observed activity/expected activity >1.2), there is a synergistic effect.

Coniophora puteana = test: radial mycelial growth on fungicide amended agar; conditions: estimated from graph of % activity (radial mycelial growth relative to agar without fungicide) against concentration
Experimental: Stem cultures of Coniophora puteana were produced by propagating the fungus on a growth medium comprising yeast extract (10 g), glycerol (20 ml), magnesium sulphate (0.5 g), sodium nitrate (6.0 g), potassium chloride (0.5 g), potassium dihydrogen orthophosphate (1.5 g), agar (20 g) in distilled water (980 ml).
Fungicides were added at levels of 5000, 100, 10, 1, 0.1 and 0.01 mg fungicide/litre of growth medium (described above) to give […] different growth medium compositions for each fungicide. Mycelial plugs were taken from the stem cultures and transferred upside down onto petri dishes containing the fungicide amended agar.
The radial mycelial growth of the fungus was measured individually on all test petri dishes. The results are expressed as % activity relative to the radial growth on agar without fungicide.
For each fungicide, a graph was drawn of percentage activity against concentration of fungicide in the growth medium. From this graph, the concentrations of fungicide required to achieve 80% activity was estimated. These figures are given in the results table.

[2] = system: Stachybotrys chartarum (DSM2144); test: Example 3 liquid culture assay on 24 well plates, solo and 2-way mixtures; conditions: test 006-2005
Description: as §1, §2, §3, §4, §5, §6, §7, §8

[3] = system: Alternaria tenuissima (DSM 63360); test: as above
Description: as §1, §2, §3, §4, §5, §6, §7, §8

[4] = system: Aspergillus niger (DSM 63263); test: as above; conditions: test 006-2005
Description: as §1, §2, §3, §4, §5, §6, §7, §8

[5] = system: Aspergillus versicolor (DSM 1943); test: as above; conditions: test 006-2005; rate (FDL) 0.05 mg ai/l
Description: as §1, §2, §3, §4, §5, §6, §7, §8

[6] = system: Penicillium chrysogenum (DSM 895); test: as above; conditions: test 006-2005
Description: as §1, §2, §3, §4, §5, §6, §7, §8

[7] = system: Alternaria tenuissima (DSM 63360); test: Example 4 liquid culture assay on 24 and 48 well plates, 3 way mixtures; conditions: A. tenuissima
Description: as §1, with “For test 006-2005: Alternaria” for “Alternaria”, “Cladosporium cladosporoides (DSM62121),” for “Stachybotrys chartarum (DSM2144),”, “fungus.” for “fungi.”, “100,000” for “100.000”
(§9) […] Spore suspensions were produced for each fungus. Spore concentrations of approx. 100,000 spores/ml were used.
(§10) Test method used: liquid culture assay on 24 and 48 well plates respectively.
(§11) For testing of the 3 way mixtures each of the formulated fungicide (100 ul) was filled into the 24 and 48 well plates respectively. Afterwards 700 ul of 0.3% AE media was added to the plate. The spore suspension of the specific fungi was added to this media in advance containing approx. 100,000 spores/ml. For testing the solo compounds the equivalent of distilled water was added instead of the formulated fungicide volume of the mixing partners. The plates were then sealed and incubated at 24° C.
as §4, with “%” for “% O”
(§12) For the mixtures of different fungicides the synergism was calculated based on the Colby equation, which is described above.

[8] = system: Aspergillus niger (DSM 63263); test: as above; conditions: A. niger
Description: as §1, with “For test 006-2005: Alternaria” for “Alternaria”, “Cladosporium cladosporoides (DSM62121),” for “Stachybotrys chartarum (DSM2144),”, “fungus.” for “fungi.”, “100,000” for “100.000”
For test 015-2006: Alternaria tenuissima (DSM 63360), Penicillium pinophilum (CBS342.61), Gliocladium virens (DSM1963), Aspergillus niger (DSM 63263), Stachybotrys chartarum (DSM 2144) and Aureobasidium pullulans (ATCC 15233) were separately cultivated on PDA media to […] sporulation. Spore suspensions were produced for each fungus. Spore concentrations of approx. 100,000 spores/ml were used.
as §10, §11
as §4, with “%” for “% O”
as §12

[9] = system: Aspergillus versicolor (DSM 1943); test: as above; conditions: test 006-2005, A. versicolor
Description: as §1, with “For test 006-2005: Alternaria” for “Alternaria”, “Cladosporium cladosporoides (DSM62121),” for “Stachybotrys chartarum (DSM2144),”, “fungus.” for “fungi.”, “100,000” for “100.000”
as §10, §11
as §4, with “%” for “% O”
as §12

[10] = system: Stachybotrys chartarum (DSM 2144); test: as above; conditions: test 015-2005, S. chartarum
Experimental: as §9, §10, §11
as §4, with “%” for “% O”
as §12

CC1COC(Cn2cncn2)(c2ccc(Oc3ccc(Cl)cc3)cc2Cl)O1 (centres unmarked) [Difenoconazole]
70%: inh % (DFZ alone) ([1]; test 006-2005, rate (DFZ) 3.12 mg ai/l)

CCCC1COC(Cn2cncn2)(c2ccc(Cl)cc2Cl)O1 (centres unmarked) [Propiconazole]
50%: inh % (PPZ alone) ([1]; test 015-2005, rate (PPZ) 25 mg ai/l)
0%: inh % (PPZ alone) ([2]; rate (PPZ) 0.8 mg ai/l)
70%: inh % (PPZ alone) ([1]; test 006-2005, rate (PPZ) 1.6 mg ai/l) | inh % (PPZ alone) ([1]; test 006-2005, rate (PPZ) 3.12 mg ai/l) | inh % (PPZ alone) ([1]; test 006-2005, rate (PPZ) 12.5 mg ai/l) | inh % (PPZ alone) ([1]; test 015-2005, rate (PPZ) 50 mg ai/l)
10%: inh % (PPZ alone) ([2]; rate (PPZ) 1.6 mg ai/l) | inh % (PPZ alone) ([2]; rate (PPZ) 3.12 mg ai/l)
1.8 mg/L: Concentration required for 80% Activity (Coniophora puteana)

N#Cc1c[nH]cc1-c1cccc2c1OC(F)(F)O2 [Fludioxonil]
10%: inh % (FDL alone) [5] | inh % (FDL alone) ([10]; FDL 0.05 mg ai/l)
70%: inh % (FDL alone) ([3]; test 006-2005, rate (FDL) 0.2 mg ai/l) | inh % (FDL alone) ([3]; test 015-2005, rate (FDL) 12.5 mg ai/l) | inh % (FDL alone) ([3]; test 015-2005, rate (FDL) 25 mg ai/l) | inh % (FDL alone) ([3]; test 015-2005, rate (FDL) 50 mg ai/l) | inh % (FDL alone) ([3]; test 015-2005, rate (FDL) 100 mg ai/l) | inh % (FDL alone) ([4]; rate (FDL) 0.8 mg ai/l) | inh % (FDL alone) ([4]; rate (FDL) 1.6 mg ai/l) | inh % (FDL alone) ([4]; rate (FDL) 3.12 mg ai/l) | inh % (FDL alone) ([4]; rate (FDL) 12.5 mg ai/l) | inh % (FDL alone) ([7]; test 006-2005, FDL 0.8 mg ai/l) | inh % (FDL alone) ([7]; test 006-2005, FDL 1.6 mg ai/l)
50%: inh % (FDL alone) ([3]; test 015-2005, rate (FDL) 1.6 mg ai/l) | inh % (FDL alone) ([3]; test 015-2005, rate (FDL) 3.1 mg ai/l) | inh % (FDL alone) ([3]; test 015-2005, rate (FDL) 6.25 mg ai/l) | inh % (FDL alone) ([3]; test 015-2005, rate (FDL) 200 mg ai/l) | inh % (FDL alone) ([4]; rate (FDL) 0.2 mg ai/l) | inh % (FDL alone) ([6]; rate (FDL) 0.2 mg ai/l) | inh % (FDL alone) ([7]; test 006-2005, FDL 0.2 mg ai/l) | inh % (FDL alone) ([7]; test 015-2005, FDL 0.8 mg ai/l) | inh % (FDL alone) ([7]; test 015-2005, FDL 1.6 mg ai/l) | inh % (FDL alone) ([8]; test 006-2005, FDL 0.8 mg ai/l) | inh % (FDL alone) ([8]; test 015-2005, FDL 0.8 mg ai/l) | inh % (FDL alone) ([8]; test 015-2005, FDL 1.6 mg ai/l) | inh % (FDL alone) ([8]; test 015-2005, FDL 3.1 mg ai/l) | inh % (FDL alone) ([10]; FDL 0.2 mg ai/l)
0%: inh % (FDL alone) ([6]; rate (FDL) 0.05 mg ai/l) | inh % (FDL alone) ([9]; FDL 0.2 mg ai/l) | inh % (FDL alone) ([9]; FDL 0.8 mg ai/l) | inh % (FDL alone) ([9]; FDL 1.6 mg ai/l)
30%: inh % (FDL alone) ([3]; test 015-2005, rate (FDL) 0.2 mg ai/l) | inh % (FDL alone) ([3]; test 015-2005, rate (FDL) 0.4 mg ai/l) | inh % (FDL alone) ([3]; test 015-2005, rate (FDL) 0.8 mg ai/l)

c1ccc2[nH]c(-c3cscn3)nc2c1 [Thiabendazole]
0%: inh % (TBZ alone) ([3]; test 015-2005, rate (TBZ) 12.5 mg ai/l) | inh % (TBZ alone) ([3]; test 015-2005, rate (TBZ) 25 mg ai/l) | inh % (TBZ alone) ([3]; test 015-2005, rate (TBZ) 50 mg ai/l) | inh % (TBZ alone) ([3]; test 015-2005, rate (TBZ) 100 mg ai/l) | inh % (TBZ alone) ([3]; test 015-2005, rate (TBZ) 200 mg ai/l) | inh % (TBZ alone) ([7]; test 006-2005, TBZ 0.2 mg ai/l) | inh % (TBZ alone) ([7]; test 006-2005, TBZ 0.8 mg ai/l) | inh % (TBZ alone) ([7]; test 006-2005, TBZ 1.6 mg ai/l) | inh % (TBZ alone) ([7]; test 015-2005, TBZ 0.2 mg ai/l) | inh % (TBZ alone) ([7]; test 015-2005, TBZ 1.6 mg ai/l) | inh % (TBZ alone) ([7]; test 015-2005, TBZ 3.1 mg ai/l) | inh % (TBZ alone) ([7]; test 015-2005, TBZ 6.25 mg ai/l) | inh % (TBZ alone) ([7]; test 015-2005, TBZ 25 mg ai/l) | inh % (TBZ alone) ([7]; test 015-2005, TBZ 100 mg ai/l) | inh % (TBZ alone) ([8]; test 006-2005, TBZ 0.8 mg ai/l) | inh % (TBZ alone) ([8]; test 015-2005, TBZ 0.2 mg ai/l) | inh % (TBZ alone) ([8]; test 015-2005, TBZ 0.8 mg ai/l) | inh % (TBZ alone) ([9]; TBZ 0.2 mg ai/l) | inh % (TBZ alone) ([9]; TBZ 0.8 mg ai/l)
>5000 mg/L: Concentration required for 80% Activity (Coniophora puteana)
30%: inh % (TBZ alone) ([10]; TBZ 25 mg ai/l)
0% and 10%: inh % (TBZ alone) ([10]; TBZ 3.1 mg ai/l, listed as TBZ)
10%: inh % (TBZ alone) ([9]; TBZ 1.6 mg ai/l) | inh % (TBZ alone) ([10]; TBZ 6.25 mg ai/l)
